Data as given in patent publication US10844051B2, “Substituted oxazoles for the treatment of cancer” (THE ROYAL INSTITUTION FOR THE ADCANCEMENT OF …, priority 2015, dated 2020).

test system: hSTING and/or mSTING; experiment: hSTING- or mSTING-dependent ISRE-luc reporter assay in 293T cells; type: cell-based; settings: 24 hours
Procedure: ISRE-luc (reporter), pRL-TK (internal control) and hSTING- or mSTING-expressing plasmids were transiently transfected into 293T cells. Cells were exposed to DMSO vehicle control or compounds for 24 hours. Experiments were done in triplicate.

SMILES | activation of hSTING and/or mSTING in ISRE-luc reporter assay
O=[N+]([O-])c1ccccc1S(=O)(=O)N(CCc1c[nH]c2ccccc12)Cc1nc(-c2ccccc2)c(-c2ccccc2)[nH]1 [Compound 1373] | activate hSTING and/or mSTING
C=CCN(CCc1c[nH]c2ccccc12)Cc1nc(-c2ccccc2)c(-c2ccccc2)o1 [Compound 1372] | activate hSTING and/or mSTING
Oc1ccc(N2CCN(Cc3nc(-c4cccc(F)c4)c(-c4cccc(F)c4)[nH]3)CC2)cc1 [Compound 1139] | activate hSTING and/or mSTING
COc1ccc2[nH]cc(CCN(Cc3nc(-c4cccc(F)c4)c(-c4cccc(F)c4)[nH]3)S(=O)(=O)c3ccccc3[N+](=O)[O-])c2c1 [Compound 1039] | activate hSTING and/or mSTING
COc1cccc(N2CCN(Cc3nc(-c4cccc(F)c4)c(-c4cccc(F)c4)[nH]3)CC2)c1 [Compound 1141] | activate hSTING and/or mSTING
c1ccc(-c2nc(CNCCc3c[nH]c4ccccc34)[nH]c2-c2ccccc2)cc1 [Compound 1369] | activate hSTING and/or mSTING
c1ccc(-c2nc(CN3CCC(c4c[nH]c5ccccc45)CC3)oc2-c2ccccc2)cc1 [Compound 1124] | activate hSTING and/or mSTING
N#Cc1cccc(CN2CCN(Cc3nc(-c4ccccc4)c(-c4ccccc4)o3)CC2)c1 [Compound 1360] | activate hSTING and/or mSTING
CNC(=O)c1ccc(C2CCN(Cc3nc(-c4cccc(F)c4)c(-c4cccc(F)c4)[nH]3)CC2)cc1 [Compound 1140] | activate hSTING and/or mSTING
N#Cc1ccc(N2CCN(Cc3nc(-c4ccccc4)c(-c4ccccc4)[nH]3)CC2)cc1 [Compound 1120] | activate hSTING and/or mSTING
Brc1ccc(N2CCN(Cc3nc(-c4ccccc4)c(-c4ccccc4)o3)CC2)cc1 [Compound 1097] | activate hSTING and/or mSTING
COc1cccc(CN2CCN(Cc3nc(-c4ccccc4)c(-c4ccccc4)o3)CC2)c1 [Compound 1289] | activate hSTING and/or mSTING
Fc1cccc(-c2nc(CN3CCC(c4c[nH]c5ccccc45)CC3)[nH]c2-c2cccc(F)c2)c1 [Compound 1137] | activate hSTING and/or mSTING
c1ccc(-c2nc(CN3CCN(Cc4ccccn4)CC3)oc2-c2ccccc2)cc1 [Compound 1285] | activate hSTING and/or mSTING
O=C(c1ccccc1)N1CCN(Cc2nc(-c3ccccc3)c(-c3ccccc3)o2)CC1 [Compound 1123] | activate hSTING and/or mSTING
Fc1ccccc1CN1CCN(Cc2nc(-c3ccccc3)c(-c3ccccc3)o2)CC1 [Compound 1357] | activate hSTING and/or mSTING
Fc1ccc(CN2CCN(Cc3nc(-c4ccccc4)c(-c4ccccc4)o3)CC2)cc1 [Compound 1288] | activate hSTING and/or mSTING
Fc1cccc(-c2nc(CNCc3ccc4[nH]ccc4c3)[nH]c2-c2cccc(F)c2)c1 [Compound 1042] | activate hSTING and/or mSTING

SMILES | activation of hSTING and/or mSTING in ISRE-luc reporter assay
OC1(c2ccccc2)CCN(Cc2nc(-c3ccccc3)c(-c3ccccc3)o2)CC1 [Compound 1103] | activate hSTING and/or mSTING
N#Cc1ccccc1CN1CCN(Cc2nc(-c3ccccc3)c(-c3ccccc3)o2)CC1 [Compound 1364] | activate hSTING and/or mSTING
OC1(c2cccc(C(F)(F)F)c2)CCN(Cc2nc(-c3ccccc3)c(-c3ccccc3)o2)CC1 [Compound 1127] | activate hSTING and/or mSTING
O=C(c1ccco1)N1CCN(Cc2nc(-c3ccccc3)c(-c3ccccc3)[nH]2)CC1 [Compound 1125] | activate hSTING and/or mSTING
O=C(c1ccco1)N1CCN(Cc2nc(-c3ccccc3)c(-c3ccccc3)o2)CC1 [Compound 1126] | activate hSTING and/or mSTING
COc1ccc(CN2CCN(Cc3nc(-c4ccccc4)c(-c4ccccc4)o3)CC2)cc1 [Compound 1287] | activate hSTING and/or mSTING
N#Cc1ccc(CN2CCN(Cc3nc(-c4ccccc4)c(-c4ccccc4)o3)CC2)cc1 [Compound 1361] | activate hSTING and/or mSTING
OC1(c2cccc(C(F)(F)F)c2)CCN(Cc2nc(-c3ccccc3)c(-c3ccccc3)[nH]2)CC1 [Compound 1129] | activate hSTING and/or mSTING
N#Cc1ccc(N2CCN(Cc3nc(-c4cccc(F)c4)c(-c4cccc(F)c4)[nH]3)CC2)cc1 [Compound 1104] | activate hSTING and/or mSTING
COCCN1CCN(Cc2nc(-c3ccccc3)c(-c3ccccc3)o2)CC1 [Compound 1370] | activate hSTING and/or mSTING
c1ccc(-c2nc(CN3CCN(c4ccccc4)CC3)[nH]c2-c2ccccc2)cc1 [Compound 1099] | activate hSTING and/or mSTING
COc1ccc2[nH]cc(CCNCc3nc(-c4cccc(F)c4)c(-c4cccc(F)c4)[nH]3)c2c1 [Compound 1041] | activate hSTING and/or mSTING
COc1cccc(N2CCN(Cc3nc(-c4ccccc4)c(-c4ccccc4)[nH]3)CC2)c1 [Compound 1143] | activate hSTING and/or mSTING
O=[N+]([O-])c1ccccc1S(=O)(=O)N(Cc1ccc2[nH]ccc2c1)Cc1nc(-c2cccc(F)c2)c(-c2cccc(F)c2)[nH]1 [Compound 1040] | activate hSTING and/or mSTING
N#CCN(CCc1c[nH]c2ccccc12)Cc1nc(-c2ccccc2)c(-c2ccccc2)o1 [Compound 1188] | activate hSTING and/or mSTING
Cc1cccnc1CN1CCN(Cc2nc(-c3ccccc3)c(-c3ccccc3)o2)CC1 [Compound 1366] | activate hSTING and/or mSTING
COc1cccc(N2CCN(Cc3nc(-c4ccccc4)c(-c4ccccc4)o3)CC2)c1 [Compound 1142] | activate hSTING and/or mSTING
Cn1cc(CNCc2nc(-c3cccc(F)c3)c(-c3cccc(F)c3)[nH]2)c2ccccc21 [Compound 1096] | activate hSTING and/or mSTING

same assay, conditions: 24 hours, 10 μM

SMILES | activation of hSTING and/or mSTING in ISRE-luc reporter assay
Fc1cccc(-c2nc(/C=C/c3ccsc3)[nH]c2-c2cccc(F)c2)c1 [Compound 1037] | activate hSTING and/or mSting
Fc1cccc(-c2nc(/C=C/c3ccsc3)oc2-c2cccc(F)c2)c1 [Compound 1036] | activate hSTING and/or mSting
O=C(c1ccccc1F)N1CCN(Cc2nc(-c3cccc(F)c3)c(-c3cccc(F)c3)[nH]2)CC1 [Compound 1178] | activate hSTING and/or mSTING
Fc1cccc(-c2nc(/C=C/c3cc(C(F)(F)F)cc(C(F)(F)F)c3)oc2-c2cccc(F)c2)c1 [Compound 1012] | activate hSTING and/or mSting
Fc1cccc(-c2nc(CN3CCC(c4cccc(C(F)(F)F)c4)CC3)[nH]c2-c2cccc(F)c2)c1 [Compound 1173] | activate hSTING and/or mSTING
O=C(c1ccc(F)cc1)N1CCN(Cc2nc(-c3cccc(F)c3)c(-c3cccc(F)c3)[nH]2)CC1 [Compound 1179] | activate hSTING and/or mSTING
COc1cccc(-c2nc(CCc3cc(C(F)(F)F)cc(C(F)(F)F)c3)oc2-c2cccc(OC)c2)c1 [Compound 1033] | activate hSTING and/or mSting
Fc1cccc(-c2nc(CN3CCN(Cc4ccccc4)CC3)[nH]c2-c2cccc(F)c2)c1 [Compound 1175] | activate hSTING and/or mSTING
Fc1cccc(-c2nc(/C=C/c3ccoc3)oc2-c2cccc(F)c2)c1 [Compound 1035] | activate hSTING and/or mSting
O=C(c1cccc(F)c1)N1CCN(Cc2nc(-c3cccc(F)c3)c(-c3cccc(F)c3)[nH]2)CC1 [Compound 1177] | activate hSTING and/or mSTING
FC(F)(F)c1cccc(CCc2nc(-c3ccccc3)c(-c3ccccc3)o2)c1 [Compound 1011] | activate hSTING and/or mSting
Fc1cccc(-c2nc(/C=C/c3cccs3)oc2-c2cccc(F)c2)c1 [Compound 1013] | activate hSTING and/or mSting
Fc1cccc(-c2nc(CN3CCN(c4ccc(Br)cc4)CC3)[nH]c2-c2cccc(F)c2)c1 [Compound 1174] | activate hSTING and/or mSTING

same assay, conditions: 24 hours, 20 μM

SMILES | activation of hSTING and/or mSTING in ISRE-luc reporter assay
Oc1ccccc1N1CCN(Cc2nc(-c3ccccc3)c(-c3ccccc3)o2)CC1 [Compound 1184] | activate hSTING and/or mSTING
Oc1cccc(N2CCN(Cc3nc(-c4cccc(F)c4)c(-c4cccc(F)c4)[nH]3)CC2)c1 [Compound 1181] | activate hSTING and/or mSTING
c1ccc(-c2nc(CN3CCN(c4ccccn4)CC3)oc2-c2ccccc2)cc1 [Compound 1227] | activate hSTING and/or mSTING
Oc1ccccc1N1CCN(Cc2nc(-c3cccc(F)c3)c(-c3cccc(F)c3)[nH]2)CC1 [Compound 1183] | activate hSTING and/or mSTING
O=C(c1cccc(F)c1)N1CCN(Cc2nc(-c3ccccc3)c(-c3ccccc3)o2)CC1 [Compound 1180] | activate hSTING and/or mSTING
Oc1cccc(N2CCN(Cc3nc(-c4ccccc4)c(-c4ccccc4)o3)CC2)c1 [Compound 1182] | activate hSTING and/or mSTING
